Measured values: PubChem BioAssay (NCI)
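Each compound was tested at five concentrations against cells in 96-well plates for 48 hours. The concentration for 50% growth inhibition is given as GI50. Definition used: TGI = concentration required for complete inhibition of growth.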

Legend:
Assay in all cases: growth of human tumour cells (NCI), 48 h
SK-MEL-28 melanoma = test system: SK-MEL-28 melanoma
BT-549 breast = test system: BT-549 breast
SK-MEL-2 melanoma = test system: SK-MEL-2 melanoma
UO-31 renal = test system: UO-31 renal
CCRF-CEM leukemia = test system: CCRF-CEM leukemia
HL-60(TB) leukemia = test system: HL-60(TB) leukemia
786-0 renal = test system: 786-0 renal
OVCAR-5 ovarian = test system: OVCAR-5 ovarian
NCI-H23 lung = test system: NCI-H23 lung
TK-10 renal = test system: TK-10 renal
K-562 leukemia = test system: K-562 leukemia
SR leukemia = test system: SR leukemia
IGROV1 ovarian = test system: IGROV1 ovarian
OVCAR-4 ovarian = test system: OVCAR-4 ovarian
SNB-75 CNS = test system: SNB-75 CNS
SK-OV-3 ovarian = test system: SK-OV-3 ovarian
KM12 colon = test system: KM12 colon
UACC-62 melanoma = test system: UACC-62 melanoma
OVCAR-3 ovarian = test system: OVCAR-3 ovarian
T-47D breast = test system: T-47D breast
A498 renal = test system: A498 renal
HOP-62 NSCLC = test system: HOP-62 NSCLC
SK-MEL-5 melanoma = test system: SK-MEL-5 melanoma
PC-3 prostate = test system: PC-3 prostate
HOP-92 NSCLC = test system: HOP-92 NSCLC
RPMI-8226 leukemia = test system: RPMI-8226 leukemia
CAKI-1 renal = test system: CAKI-1 renal
MALME-3M melanoma = test system: MALME-3M melanoma
MDA-MB-435 = test system: MDA-MB-435
ACHN renal = test system: ACHN renal
HCT-15 colon = test system: HCT-15 colon
A549 NSCLC = test system: A549 NSCLC
NCI/ADR-RES ovarian = test system: NCI/ADR-RES ovarian
SF-539 CNS = test system: SF-539 CNS
HT29 colon = test system: HT29 colon
SN12C renal = test system: SN12C renal
HCT-116 colon = test system: HCT-116 colon
M14 melanoma = test system: M14 melanoma
NCI-H522 lung = test system: NCI-H522 lung
RXF 393 renal = test system: RXF 393 renal
UACC-257 melanoma = test system: UACC-257 melanoma
SF-268 CNS = test system: SF-268 CNS
EKVX NSCLC = test system: EKVX NSCLC
HS 578T breast = test system: HS 578T breast
SW-620 colon = test system: SW-620 colon
COLO 205 colon = test system: COLO 205 colon
U251 CNS = test system: U251 CNS
OVCAR-8 ovarian = test system: OVCAR-8 ovarian
DU-145 prostate = test system: DU-145 prostate
MDA-MB-231 breast = test system: MDA-MB-231 breast
LOX IMVI melanoma = test system: LOX IMVI melanoma
MCF7 breast = test system: MCF7 breast
HCC-2998 colon = test system: HCC-2998 colon
SF-295 CNS = test system: SF-295 CNS
SNB-19 CNS = test system: SNB-19 CNS
MOLT-4 leukemia = test system: MOLT-4 leukemia

Work on `CC1=CC2C(C(O)CC3(C)C2CC(C)C32OCOC23COCO3)C2(C)C/C(=C/O)C(=O)C=C12` (configuration not stated) yielded a GI50 (SK-MEL-28 melanoma) of 1.87 µM, a TGI (SK-MEL-28 melanoma) of 3.51 µM and a GI50 (BT-549 breast) of 1.62 µM. For the same compound, the TGI (BT-549 breast) was 3.17 µM, the GI50 (SK-MEL-2 melanoma) was 1.97 µM and the TGI (SK-MEL-2 melanoma) was 3.8 µM. The GI50 (UO-31 renal) was 1.52 µM, the TGI (UO-31 renal) was 3.04 µM and the GI50 (CCRF-CEM leukemia) was 1.05 µM. The TGI (CCRF-CEM leukemia) was 3.61 µM, the GI50 (HL-60(TB) leukemia) was 2.1 µM and the TGI (HL-60(TB) leukemia) was 4.63 µM. It also gave a GI50 (786-0 renal) of 1.83 µM, a TGI (786-0 renal) of 3.55 µM and a GI50 (OVCAR-5 ovarian) of 1.98 µM. It also gave a TGI (OVCAR-5 ovarian) of 3.92 µM, a GI50 (NCI-H23 lung) of 2 µM and a TGI (NCI-H23 lung) of 3.83 µM. For the same compound, the GI50 (TK-10 renal) was 1.91 µM, the TGI (TK-10 renal) was 3.59 µM and the GI50 (K-562 leukemia) was 2.09 µM. It also gave a TGI (K-562 leukemia) of 5.73 µM, a GI50 (SR leukemia) of 2.11 µM and a TGI (SR leukemia) of 4.45 µM. For the same compound, the GI50 (IGROV1 ovarian) was 2.07 µM, the TGI (IGROV1 ovarian) was 4 µM and the GI50 (OVCAR-4 ovarian) was 1.74 µM. The TGI (OVCAR-4 ovarian) was 3.83 µM, the GI50 (SNB-75 CNS) was 1.63 µM and the TGI (SNB-75 CNS) was 3.03 µM. For the same compound, the GI50 (SK-OV-3 ovarian) was 2.73 µM, the TGI (SK-OV-3 ovarian) was 6.42 µM and the GI50 (KM12 colon) was 2.39 µM. The TGI (KM12 colon) was 4.77 µM, the GI50 (UACC-62 melanoma) was 1.76 µM and the TGI (UACC-62 melanoma) was 3.83 µM. The GI50 (OVCAR-3 ovarian) was 2.05 µM, the TGI (OVCAR-3 ovarian) was 3.59 µM and the GI50 (T-47D breast) was 2.33 µM. The TGI (T-47D breast) was 5.73 µM, the GI50 (A498 renal) was 2.83 µM and the TGI (A498 renal) was 14.8 µM. For the same compound, the GI50 (HOP-62 NSCLC) was 1.99 µM, the TGI (HOP-62 NSCLC) was 3.52 µM and the GI50 (SK-MEL-5 melanoma) was 1.74 µM. It also gave a TGI (SK-MEL-5 melanoma) of 3.16 µM, a GI50 (PC-3 prostate) of 1.71 µM and a TGI (PC-3 prostate) of 4.4 µM. For the same compound, the GI50 (HOP-92 NSCLC) was 1.78 µM, the TGI (HOP-92 NSCLC) was 3.45 µM and the GI50 (RPMI-8226 leukemia) was 1.84 µM. The TGI (RPMI-8226 leukemia) was 5.15 µM, the GI50 (CAKI-1 renal) was 1.94 µM and the TGI (CAKI-1 renal) was 3.8 µM. For the same compound, the GI50 (MALME-3M melanoma) was 1.84 µM, the TGI (MALME-3M melanoma) was 3.58 µM and the GI50 (MDA-MB-435) was 1.78 µM. It also gave a TGI (MDA-MB-435) of 3.64 µM, a GI50 (ACHN renal) of 1.85 µM and a TGI (ACHN renal) of 3.45 µM. It also gave a GI50 (HCT-15 colon) of 1.97 µM, a TGI (HCT-15 colon) of 5.07 µM and a GI50 (A549 NSCLC) of 3.02 µM. It also gave a TGI (A549 NSCLC) of 10.7 µM, a GI50 (NCI/ADR-RES ovarian) of 2.28 µM and a TGI (NCI/ADR-RES ovarian) of 4.8 µM. The GI50 (SF-539 CNS) was 1.93 µM, the TGI (SF-539 CNS) was 3.64 µM and the GI50 (HT29 colon) was 1.79 µM. The TGI (HT29 colon) was 5.01 µM, the GI50 (SN12C renal) was 2.5 µM and the TGI (SN12C renal) was 6.39 µM. The GI50 (HCT-116 colon) was 1.49 µM, the TGI (HCT-116 colon) was 2.97 µM and the GI50 (M14 melanoma) was 1.66 µM. It also gave a TGI (M14 melanoma) of 3.51 µM, a GI50 (NCI-H522 lung) of 1.79 µM and a TGI (NCI-H522 lung) of 3.47 µM. For the same compound, the GI50 (RXF 393 renal) was 1.81 µM, the TGI (RXF 393 renal) was 3.31 µM and the GI50 (UACC-257 melanoma) was 1.82 µM. The TGI (UACC-257 melanoma) was 3.86 µM, the GI50 (SF-268 CNS) was 2.03 µM and the TGI (SF-268 CNS) was 3.84 µM. It also gave a GI50 (EKVX NSCLC) of 2.31 µM, a TGI (EKVX NSCLC) of 7.48 µM and a GI50 (HS 578T breast) of 2.28 µM. The TGI (HS 578T breast) was 5.72 µM, the GI50 (SW-620 colon) was 1.65 µM and the TGI (SW-620 colon) was 3.32 µM. The GI50 (COLO 205 colon) was 1.97 µM, the TGI (COLO 205 colon) was 3.47 µM and the GI50 (U251 CNS) was 1.66 µM. It also gave a TGI (U251 CNS) of 3.27 µM, a GI50 (OVCAR-8 ovarian) of 1.76 µM and a TGI (OVCAR-8 ovarian) of 3.73 µM. It also gave a GI50 (DU-145 prostate) of 2.57 µM, a TGI (DU-145 prostate) of 5.81 µM and a GI50 (MDA-MB-231 breast) of 1.75 µM. It also gave a TGI (MDA-MB-231 breast) of 3.49 µM, a GI50 (LOX IMVI melanoma) of 1.75 µM and a TGI (LOX IMVI melanoma) of 3.31 µM. For the same compound, the GI50 (MCF7 breast) was 2.69 µM, the TGI (MCF7 breast) was 10.1 µM and the GI50 (HCC-2998 colon) was 1.91 µM. For the same compound, the TGI (HCC-2998 colon) was 3.38 µM, the GI50 (SF-295 CNS) was 2.22 µM and the TGI (SF-295 CNS) was 5.34 µM. The GI50 (SNB-19 CNS) was 3.22 µM, the TGI (SNB-19 CNS) was 12 µM and the GI50 (MOLT-4 leukemia) was 1.97 µM. For the same compound, the TGI (MOLT-4 leukemia) was 4.9 µM.
